Patent publication US5658928A, “Amino acid derivatives” (Hoffmann-La Roche Inc., priority 1991, dated 1997)
pIC50: −log10 of the molar value.

Assays:
[1] = target: T1, fibrinogen receptor, glycoprotein IIb/IIIa (Homo sapiens, UniProt P05106+P08514); test: inhibition of the binding of fibrinogen to the immobilized fibrinogen receptor, glycoprotein IIb/IIIa (ELISA); conditions: concentration required to inhibit the binding of fibrinogen to the immobilized receptor by 50%
T1 construct: The glycoprotein IIb/IIIa is obtained from Triton X-100 extracts of human blood platelets; from tissue; host or cells: human blood platelets (Triton X-100 extract)
Procedure: The glycoprotein IIb/IIIa is obtained from Triton X-100 extracts of human blood platelets and purified by lectin affinity chromatography (Analytical Biochemistry 151, 1985, 169-177) and chromatography on an Arg-Gly-Asp-Ser affinity column (Science 231, 1986, 1559-62). The thus-obtained receptor protein is bonded to microtiter plates. The specific binding of fibrinogen to the immobilized receptor is determined with the aid of an ELISA system ("enzyme-linked immunosorbent assay"). The IC50 values hereinafter correspond to that concentration of the test substance which is required to inhibit the binding of fibrinogen to the immobilized receptor by 50%: […]

in vivo = conditions: iv, i.v. in the mouse
From the text: These compounds have low toxicity.

T1 sequence (P08514 32-887 limits assumed): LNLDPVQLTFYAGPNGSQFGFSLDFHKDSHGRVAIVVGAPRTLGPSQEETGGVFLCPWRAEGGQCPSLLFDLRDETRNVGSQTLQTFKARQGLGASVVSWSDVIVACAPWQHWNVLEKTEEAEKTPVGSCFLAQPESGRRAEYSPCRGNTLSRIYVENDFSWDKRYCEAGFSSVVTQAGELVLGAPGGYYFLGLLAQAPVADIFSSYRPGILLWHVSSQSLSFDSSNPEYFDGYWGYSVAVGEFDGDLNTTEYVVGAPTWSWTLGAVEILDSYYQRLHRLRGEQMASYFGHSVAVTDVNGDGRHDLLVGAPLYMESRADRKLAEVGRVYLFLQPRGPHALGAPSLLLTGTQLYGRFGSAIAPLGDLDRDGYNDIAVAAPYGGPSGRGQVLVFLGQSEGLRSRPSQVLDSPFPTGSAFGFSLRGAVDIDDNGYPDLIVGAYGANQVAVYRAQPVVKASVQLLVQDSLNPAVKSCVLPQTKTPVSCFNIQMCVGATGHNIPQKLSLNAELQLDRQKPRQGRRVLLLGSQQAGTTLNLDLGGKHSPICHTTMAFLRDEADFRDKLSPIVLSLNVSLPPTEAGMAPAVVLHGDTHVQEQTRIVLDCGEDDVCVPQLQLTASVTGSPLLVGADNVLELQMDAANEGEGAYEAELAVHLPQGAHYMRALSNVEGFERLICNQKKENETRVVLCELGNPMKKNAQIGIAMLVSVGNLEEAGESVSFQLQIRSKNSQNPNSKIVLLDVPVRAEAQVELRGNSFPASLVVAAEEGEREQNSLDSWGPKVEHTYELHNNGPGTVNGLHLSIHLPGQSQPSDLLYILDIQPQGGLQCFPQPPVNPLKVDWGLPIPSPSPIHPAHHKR
T1 sequence (P08514 891-1039 partner limits assumed): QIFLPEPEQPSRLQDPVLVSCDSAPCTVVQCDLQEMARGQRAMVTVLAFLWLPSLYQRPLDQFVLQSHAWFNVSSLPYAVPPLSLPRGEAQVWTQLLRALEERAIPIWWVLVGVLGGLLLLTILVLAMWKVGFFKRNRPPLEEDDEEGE
T1 sequence (P05106 27-788): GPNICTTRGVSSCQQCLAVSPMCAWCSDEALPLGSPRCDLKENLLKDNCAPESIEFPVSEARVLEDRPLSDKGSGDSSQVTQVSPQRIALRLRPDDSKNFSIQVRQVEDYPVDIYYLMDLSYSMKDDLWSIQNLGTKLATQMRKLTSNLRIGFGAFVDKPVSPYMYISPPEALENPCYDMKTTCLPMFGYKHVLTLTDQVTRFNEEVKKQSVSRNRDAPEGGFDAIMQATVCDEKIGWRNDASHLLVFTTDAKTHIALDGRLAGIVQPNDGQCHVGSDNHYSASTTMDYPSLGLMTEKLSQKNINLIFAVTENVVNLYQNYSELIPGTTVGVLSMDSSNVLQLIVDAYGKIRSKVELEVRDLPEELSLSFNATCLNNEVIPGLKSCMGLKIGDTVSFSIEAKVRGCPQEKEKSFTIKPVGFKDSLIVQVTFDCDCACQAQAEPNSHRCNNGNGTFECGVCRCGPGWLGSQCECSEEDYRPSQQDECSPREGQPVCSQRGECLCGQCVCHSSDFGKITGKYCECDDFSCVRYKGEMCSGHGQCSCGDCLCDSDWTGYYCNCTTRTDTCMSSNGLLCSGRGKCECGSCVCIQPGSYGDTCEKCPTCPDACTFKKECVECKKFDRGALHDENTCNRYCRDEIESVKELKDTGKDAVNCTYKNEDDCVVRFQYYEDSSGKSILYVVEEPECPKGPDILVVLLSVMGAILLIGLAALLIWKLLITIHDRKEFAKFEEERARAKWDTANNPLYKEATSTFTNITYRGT

Compound	pIC50 [1]	LD50 (in vivo) [mg/kg]
C[C@@H](NC(=O)c1ccc(C(=N)N)cc1)C(=O)N1CCC(OCC(=O)O)CC1 [Example 4, [[1-[N-(p-amidinobenzoyl)-D-alanyl]-4-piperidinyl]oxy]acetic acid]	3.85	
C[C@H](NC(=O)c1ccc(C(=N)N)cc1)C(=O)N1CCC(OCC(=O)O)CC1 [Example 3, [[1-[N-(p-amidinobenzoyl)-L-alanyl]-4-piperidinyl]oxy]acetic acid]	5.77	250
C[C@H](NC(=O)c1ccc(C(=N)N)cn1)C(=O)N1CCC(OCC(=O)O)CC1 [Example 5, [[1-[N-[(5-amidino-2-pyridyl)carbonyl]-L-alanyl]-4-piperidinyl]oxy]acetic acid]	6.00	500
N=C(N)c1ccc(C(=O)N[C@@H](Cc2ccc(O)cc2)C(=O)N2CCC(OCC(=O)O)CC2)cc1 [Example 14, [[1-[N-(p-amidinobenzoyl)-L-tyrosil]-4-piperidinyl]oxy]acetic acid]		250
N=C(N)c1ccc(C(=O)NCC(=O)N2CCC(OCC(=O)O)CC2)cc1 [Example 1, [[1-[N-(p-amidinobenzoyl)glycyl]-4-piperidinyl]oxy]acetic acid]	5.00	

The next lines start with results.

pIC50 [1]	Compound	LD50 (in vivo) [mg/kg]
4.57	CC(C)[C@H](NC(=O)c1ccc(C(=N)N)cc1)C(=O)N1CCC(OCC(=O)O)CC1 [Example 6, [[1-[N-(p-amidinobenzoyl)-L-valyl]-4-piperidinyl]oxy]-acetic acid]	
4.48	CC(C)C[C@H](NC(=O)c1ccc(C(=N)N)cc1)C(=O)N1CCC(OCC(=O)O)CC1 [Example 7, [[1-[N-(p-amidinobenzoyl)-L-leucyl]-4-piperidinyl]oxy]acetic acid]	
